Measurements reported in patent US12133486B2, “Methods of propagation of arbuscular mycorrhizal fungi (AMF) and uses thereof” (Terra Microbes, LLC, priority 2021, dated 2024).

Key:
[1] = tested on: AM fungi; test: Field plot study: AMF spore counts in soil around western wheatgrass roots; type: in vivo; settings: field plots; for Total Spores t = 47 days / Total Spores t = 0 days: mean n = 3, P added at 120 kg/ha (KCl: same K); for Total Spores t = 47 days / spore numbers compared with the control: second sampling; for Total Spores t = 0 days: t = 0 = first sampling, 14 days after treatment; for spore numbers compared with the control: t = 47
From the text: (§1) Twelve plots of size 50 cm by 50 cm were established on a homogenous site 2.54 meters (running northeast and southwest) by 4.06 meters (running southeast and northwest). Plant distribution was mostly homogeneous across the entire site, with western wheatgrass dominant. The plots were in four rows with three plots in each row. Within a row plots were 25 cm apart. Rows were 50 cm apart. An experimental unit was one plot. Treatments were replicated three times. Treatments included: controls (no treatment), potassium chloride treatment, potassium phosphate treatment, and potassium phosphite treatment. (See, FIG. 2).
In this study phosphorus, either as phosphate or phosphite, was added at a rate of 120 kg of P per hectare (ha). Scaled down this equates to 3 grams of phosphorous per plot. One ha is 10,000 m^2. Each plot is 50 cm by 50 cm, or 0.25 m^2. The subsequent calculation then is 120 Kg/10,000 m^2=X/0.25 m^2; X=3.00 grams of P per plot. (See Table 2).
(§2) Treatments: All plots received the same amount of solution. The control plots were treated with distilled water only (6.375 L). The KCl plots treated with distilled water containing the same amount of K as was needed to convert the phosphorous acid (H3PO3) to dipotassium phosphite (K2HPO3). The phosphate plots were treated with sufficient dipotassium phosphate (K2HPO4) to deliver 3 g of P per plot dissolved in the same amount of distilled water as the control plots received and the KCl plots received. The phosphite plots were treated with sufficient dipotassium phosphite (K2HPO3) to deliver 3 g of P per plot dissolved in the same amount of distilled water as the control plots received, the KCl plots received and the phosphate plots received.
The field experiment reported in this example was conducted during June through October. Plots were established during early June and treated on the 15th and 16th day (as in Example 3 above). The first soil and root sampling was performed 14 days later (t=14). The second set of samples were taken 47 days later (t=61), and the third set 60 days later (t=121 days). Sample size and depth was as detailed above in Example 3.
AMF spores were evaluated in soil samples from which plant roots including plant roots of western wheatgrass had existed and had been removed. Evaluations were performed on the T=0 and the T=47 samples. These evaluations generally entailed mixing the sample with water, centrifugation, and decanting water. This step was performed to remove light organic matter and other light materials, e.g., leaf fragments. This was followed by mixing the soil with a solution of sodium hexametaphosphate (2%) in 2 M sucrose. Centrifugation results in the spores floating on the sucrose solution or suspended in it. The sucrose solution plus spores is decanted into a separatory funnel. The suspension was allowed to exit the funnel one drop at a time. The spores adhere to the inside of the funnel and once all liquid has exited the funnel the spores are washed into a petri-dish and counted under a dissecting microscope.
The specific protocol for spore extraction was as follows: • A) Weigh 5 g of air dried soil into a 20 ml centrifuge tube. For a complete sample this is replicated four times. • B) Fill each tube with water to ˜1.5 cm of the top. Stir to suspend organic matter and other light debris. Let all tubes stand for 10 minutes. • C) Centrifuge at 2000 rpm (475.2×g) for 10 minutes. Be sure tubes are placed across from each other in the centrifuge and are within 0.1 g of the same weight. • D) Pour off and discard supernatant while stirring surface and rotating tube. • E) If much organic matter and other light material remains, repeat steps B through D. • F) Add sucrose/sodium hexametaphosphate solution (2 molar sucrose containing 2% hexametaphosphate: 684.6 g of sucrose (store grade is adequate) and 20 g of sodium hexametaphosphate in one liter of solution using distilled water) to centrifuge tubes to ˜1.5 cm of top. […]

[2] = tested on: AMF infections of western wheatgrass (Pascopyron smithii) roots; test: Field plot study: AM fungal infection of western wheatgrass roots; type: in vivo; settings: for AM Infection t = 0 days / AM Infection t = 47 days / AM Infection t = 97 days: western wheatgrass roots, field plots, mean n = 3; for AM Infection t = 0 days: first sampling; for AM Infection t = 97 days: third sampling
From the text: as §1, §2
The field experiment reported in this example was conducted during June through October. Plots were established during early June and treated on the 15th and 16th day (as in Example 3 above). […] Sample size and depth was as detailed above in Example 3.
Analyses of infections were performed by examining roots of wheatgrass (Pascopyron smithii). This plant was the dominant plant in all of the plots and is known to be commonly infected with AM fungi. (See, Loree M. A. J. and Williams S. E., New Phytologist, 106:735-744, 1987; and Wang B. and Qui Y.-L. 2006, Ibid.). During sampling of soils using the methodology outlined in Example 3, above, root of target plants were removed and separated by plant species, each sample being labeled and preserved in FAA solution until being further processed.
Staining of the roots was achieved according to published procedures (see, Phillips J. M. and Hayman D. S., Trans. Brit. Mycological Soc., 55:158-160, 1970) except that cotton blue lactophenol was substituted with lactic acid glycerol with trypan blue since lactophenol is toxic. The procedure used for staining was as follows: • A) Remove roots from FAA Solutions. Cut into 1 cm lengths. Place in test tube, push roots to the bottom of the test tube. • B) Cover roots with 10% KOH (10 grams of reagent grade KOH in enough distilled water to 100 ml). Let stand overnight, about 10 hours. • C) Simmer at 90° C. for one hour in a water bath (container with water and test tubes with roots over a heat source). • D) Rinse in tap water. • E) Rinse five minutes in 0.1 N HCl (3.65 […] of HCl in 1000 ml total volume with distilled water). • F) Rinse in tap water. • G) Simmer at 90° C. one hour (in water bath) in Trypan blue Lactic Acid Glycerol (distilled water, 100 ml; lactic acid (reagent grade 85 to 88%) 100 ml; glycerin (reagent grade 85% also listed as glycerol), 200 ml; trypan blue, 0.1 grams (60% dye content). • H) Rinse in tap water. • I) Place in clear lactic acid glycerol (same formulation as above except without the Trypan blue) if destaining is necessary. Samples can be simmered at 90° C. (one hour in water bath) or left at room temperature for at least 72 hours or longer. • J) Mount on standard glass slide (2.5 cm by 7.6 cm) in lactic acid glycerol. Cover slip (2.3 cm by 4.8 cm) used.
An estimate of the degree of infection of western wheatgrass was made by making microscopic scans of each slide such that 40 root segments were evaluated. The evaluation was performed using the 20× objective, e.g., 200× total magnification—eyepieces were 10× multiplied by the objective magnification. […]

O=P([O-])([O-])O.[K+].[K+] [PO4, dipotassium phosphate]
Total Spores t = 47 days [1]: 12960Ab Per 100 g soil
Total Spores t = 0 days [1]: 4998Aa Per 100 g soil
spore numbers compared with the control [1]: significant increase in spore numbers from the control
root infection level compared with control, KCl and phosphite plots ([2]; second sampling, t = 47): significant increase
AM Infection t = 0 days [2]: 31Aa Per forty 1.1 mm root segments
AM Infection t = 47 days ([2]; second sampling): 38.7Bbc Per forty 1.1 mm root segments
AM Infection t = 97 days [2]: 38ACc Per forty 1.1 mm root segments

OP(O)O [PO3, dipotassium phosphite]
Total Spores t = 47 days [1]: 17896Ab Per 100 g soil
Total Spores t = 47 days ([1]; listed as phosphite): 17,896 Per 100 g soil
Total Spores t = 0 days [1]: 6429Aa Per 100 g soil
spore numbers compared with the control [1]: significant increase in spore numbers from the control
AM Infection t = 0 days [2]: 32Aa Per forty 1.1 mm root segments
AM Infection t = 47 days ([2]; second sampling): 31Aab Per forty 1.1 mm root segments
AM Infection t = 97 days [2]: 39ACc Per forty 1.1 mm root segments
